The source of these data is patent publication US4631293A, “(-) Campholenic acid ester of salicylic acid and pharmaceutically acceptable salts thereof having mucosecretolytic, anti-inflammatory, analgesic, and antipyretic activity” (Camillo Corvi S.p.A., priority 1984, dated 1986).

For one series, the system named is bronchial secretion. Description: Bronchosecretagogue activity: quantitative evaluation of the bronchial secretion of rabbit (Scuri et al.). The series is classed as in vivo, rabbit (adult male brown). To be noted: oral. The source says:
Method of quantitative evaluation of the bronchial secretion of rabbit according to Scuri R. et al. Boll. Chim. Farm. […] Adult male brown rabbits (2.8-3.5 kg of body weight) are employed, to which a T shaped tracheal cannula, by surgical operation, as described in the mentioned bibliographic reference, is applied. To the cannula, a container for periodical collection of the bronchial secretion is applied. The study of mucoproduction, started at the fourth day after the operation, is divided into two periods, each of 4 hours, for collecting and measuring the mucus secreted. The action of the drug under examination, is tested by administering the same orally at the begining of the second mucus collection period and evaluating the percent increase of mucus production (as measured gravimetrically in the second period in comparison with the first period).

The test system of another series is yeast induced pyrexia. The series is described as follows: Antipyretic activity: yeast induced pyrexia in the rat. The series is classed as in vivo, rat (female Wistar albine). To be noted: for ED50: oral simultaneously with yeast, Temperature Index. As for the experimental part:
Method of yeast induced pyrexia in the rat. Female Wistar albine rats, weighing 100-140 g, are utilized. The animals having a basal rectal temperature from 36° to 37° C. are selected. The testing substances are administered orally simultaneously with the pyretic agent (dry brewers' yeast suspended in water at the 20% concentration, administered volume 15 ml/kg, subcutaneously) to groups of 5 animals per dose. After 4, 5, 6, 7 and 24 hours from the treatment, the rectal temperature of the animals is recorded by an Ellab RM6 probe, connected to an Ellab-mod. TE-3 thermometer. The activity of the drugs is evaluated by utilizing a Temperature Index, which is given by the algebraic sum of the differences in the rectal temperature between the measure values at different times and the basal value;

For series [1], the system named is stomach. Description: Gastric tolerability: gastric ulcerogenesys by repeated drug administrations. The series is classed as in vivo, rat (female Wistar albine). To be noted: rat. How it is done: (§1) Method of gastric ulcerogenesys by repeated drug administrations.
(§2) Fed female Wistar albine rats (140-160 g of initial body weight) are used.
(§3) The drug under test is administered orally, daily, for five days. At the end of the test the stomach of the rats is withdrawn, it is dissected along the lesser curvature, washed and observed in order to disclose the presence of either gastric lesions or manifest submucosa hemorrhages.
(§4) The "ulcerogenic dose 50" (UD50) is defined as the daily dose able to induce lesions or hemorrhages in 50% of the animals treated.

Test in series [2]: as above
The series is classed as in vivo, rat (female Wistar albine). The following applies: rat, in vivo, po. How it is done:
as §1, §2, §3, §4

Series [3] relates to mouse. Description: Lethal dose 50 (LD50) in the mouse after a single oral administration. In kind it is in vivo. The following applies: in comparison with acetylsalicylic acid. As for the experimental part: (§5) Method for studying the lethal dose 50(LD50) in the mouse after a single administration.
(§6) Groups of 10 Swiss albine, female, adult (20-22 g of body weight) mice, fasting from the evening preceding the test, are treated orally with various doses of the test drug suspended in hydroxyethylcellulose (0.50% weight/volume).
(§7) Thereafter, the animals are fed again.
(§8) LD50 is calculated by the method of Litchfield J. T. and Wilcoxon F. (J. Pharmacol. 96, 99-113, 1949) by utilizing the mortality data as obtained on the 14th day after the test drug administration.

Test in series [4]: as above
The series is classed as in vivo. To be noted: in vivo, single administration, 14th day mortality. As for the experimental part:
as §5, §6, §7, §8

The subject of series [5] is phenylquinone abdominal contractions. The series is described as follows: Analgesic activity: phenylquinone method (abdominal contractions). The series is classed as in vivo, mouse (female Swiss albine). To be noted: for ED50: read-out: Analgesic activity ED50; for analgesic activity (in words): oral, comparison with acetylsalicylic acid. As for the experimental part:
Female Swiss albine mice (20-25 g), fasting for 2 hours, are utilized.
The test drug is administered orally 30 minutes before the endoperitoneal injection of phenylquinone (0.08 mg/mouse).
The characteristic abdominal contractions are counted individually during a 20 minutes period.

Another series deals with pleural exudate. Description: Anti-exudative activity: quantitative evaluation of the pleural exudate of a rat (carrageenin pleuritis). The series is classed as in vivo, rat (female albine Wistar). To be noted: for ED50: 6 h, read-out: Anti-exudative activity ED50. As for the experimental part:
Method of the quantitative evaluation of the pleural exudate of a rat according to Vinegar E. et al.-Proc. Soc. […] Female albine Wistar rats (average weight 160 g), fasting from the evening preceding the test, are used. The experimental pleuritis is induced by injecting into the pleural cavity, under ethereal anesthesia, 0.15 ml of a 1% carrageenin solution (Prodotti Gianni-Milano). The test drug is administered orally, half an hour before the carrageenin. Six hours after the carrageenin injection, the animals are sacrificed and volumetric measurement of the pleural exudate, as withdrawn by a syringe, is performed.

In series [6] the test system is carrageenin induced oedema. Description: Anti-oedemigenous activity: carrageenin induced oedema (Winter et al.). To be noted: for ED40: 3 h, read-out: Anti-oedemigenous activity ED40. The series is classed as in vivo, rat (female albine Wistar). As for the experimental part:
Method of carrageenin induced oedema according to Winter C. A. et al--Proc. Soc. […] Female albine Wistar rats (120-160 g of body weight) are utilized. The drug under test is administered orally one hour before injection into the right hind paw of a carrageenin water suspension (1% volume injected ml 0.05).
A general note: In the carrageenan paw model, swelling and tenderness develop within hours.

In series [7] the test system is stomach. To be noted: Arrigono-Martelli, Meth. Find. Exp. Clin. Pharmacol. 1, 157, 1979; 7200 min; cited from earlier work.
Series [8] deals with mouse. To be noted: literature datum, Hart E R J. Pharm. Exp. Ther. 89 205, 1947; 20160 min; cited from earlier work.

Each structure is given as a SMILES string. “Also recorded” adds a separate entry of the source. Read-outs that look alike come from different tables or passages of the source.

The term ED50 denotes the midpoint of the dose-response relation. In general, NOAEL refers to the highest tested level that showed no adverse finding. Take `CC1=CCC(CC(=O)Oc2ccccc2C(=O)O)C1(C)C` (single isomer, unassigned) [CO/1473, 2-(2,2,3-trimethyl-3-cyclopentene-1-acetoxy)benzoic acid]: the 50% effective dose (ED50) in the series with bronchial secretion (Oryctolagus cuniculus, 4 h, percent increase of mucus production) turned out to be 60 mg/kg; with yeast induced pyrexia it was 400 mg/kg; in series [5] (mouse, oral 30 minutes before phenylquinone), 52 mg/kg; with pleural exudate (rat, oral half an hour before carrageenin, exudate volume after six hours), 320 mg/kg. Further, the “bronchosecretagogue activity (in words)” value in the series with bronchial secretion is on record as “has bronchosecretagogue activity in the rabbit”. In addition, the “antipyretic activity (in words)” value in the series with yeast induced pyrexia (oral, comparison with acetylsalicylic acid) is “interesting antipyretic activity in the rat, though lower than the one of acetylsalicylic acid”. Besides, in the series with stomach [1] (up to the maximum dose of 800 mg/kg os/die for 5 days, listed as compound of the invention, 800 mg/kg), the “gastro-damaging effect (in words)” value is on record as “does not show any gastro-damaging effect; also recorded: very good gastric tolerability”. In [2], this compound gave a no observed adverse effect level (NOAEL) at 120 h of 800 mg/kg. In addition, the “acute toxicity (in words)” value in the series with mouse [3] is listed as “low acute toxicity”. The compound further displayed an LD50 at 336 h in series [4] of 913 mg/kg. Also, in series [5] (mouse), the “analgesic activity (in words)” value is reported as “slightly more active than acetylsalicylic acid”. For the same compound, in the series with pleural exudate (rat, oral, second test of Table 3), the “anti-exudative activity in comparison with acetylsalicylic acid (in words)” value is “slightly inferior in the second”. The ED40 in series [6] (rat, oral one hour before carrageenin, paw volume after three hours) came out at 400 mg/kg. Moreover, in series [6] (rat, oral, first test of Table 3), the “anti-oedemigenous activity in comparison with acetylsalicylic acid (in words)” value is reported as “superior in the first test”.

For the compound `CC(=O)Oc1ccccc1C(=O)O` [acetylsalicylic acid, reference compound], the “Bronchosecretagogue activity ED50” value with bronchial secretion (percent increase of mucus production) was “inactive”. In addition, the ED50 in the series on yeast induced pyrexia worked out at 157 mg/kg; in series [5] (Mus musculus, po), 70 mg/kg; with pleural exudate (Rattus norvegicus, po), 215 mg/kg. Moreover, the “gastro-damaging dose, times lower than that of CO/1473” value in the series with stomach [1] (oral, acetylsalicylic acid dose versus CO/1473 dose) stood at 16 times lower. In addition, the “analgesic activity (in words)” value in [5] (mouse) was “good analgesic activity in the mouse”. Besides, in the series with stomach [7], the “UD50 (ulcerogenic dose 50)” value is reported as 48 mg/kg os. Moreover, the LD50 with mouse [8] is given as 1100 mg/kg os. Also, the ED40 in series [6] (Rattus norvegicus, po) came out at 400 mg/kg.
